In general, MIC refers to the lowest concentration that inhibits growth of the organism. Higher therefore signals a need for much substance. What is called IC50 is the concentration that gives 50% inhibition. A higher IC50 goes with a need for much substance. As a reminder, the EC50 is the midpoint of the concentration-response curve.

One data set deals with E. coli (ATCC 25922). Kind of data set: MIC susceptibility testing. It counts as cell-based. Conditions: Escherichia coli, ATCC25922. In a few lines:
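CLSI broth microdilution in triplicate, 5×10^5 CFU/mL final, ≤0.5% DMSO; MHB for S. aureus, CA-MHB for E. coli and E. faecium, CA-MHB plus 3% laked horse blood for S. pyogenes (5% CO2).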

Data set [1] concerns P. aeruginosa (ATCC 27853). Nature of the data set: MIC susceptibility testing. The conditions noted are these: Pseudomonas aeruginosa, ATCC27853. It counts as cell-based.
For data set [2] the following is noted: mice infected with T. brucei, 50 mg/kg PO twice-per-day for 10 days; previous publication; cited from earlier work.
The subject of another data set is S. aureus (ATCC 29213). Kind of data set: Macromolecular synthesis assays (radiolabeled precursor incorporation). It counts as cell-based, Staphylococcus aureus. Conditions: 30 minute incubations. As for the experimental part:
Macromolecular synthesis assays: Methods for measuring uptake of radiolabeled precursors by S. aureus (ATCC strain 29213) were adapted from previous publications. For these assays, bacteria were grown in defined media (DM): RPMI-1640 pH 7.3±0.1 without phenol red or L-glutamine (Lonza, Basel, Switzerland) supplemented with 4 mM L-glutamine (Lonza, Basel, Switzerland), 10 mM HEPES (Lonza, Basel, Switzerland), and 1% (w/v) D-glucose (Sigma Aldrich, St. Louis, Mo.). Fresh overnight cultures grown in DM at 37° C. were diluted 1:50 in pre-warmed DM and grown at 37° C. with shaking (150 rpm) until reaching an OD600 of 0.420 correlating to ˜1*10^9 CFUs/mL in mid-log phase. Each compound was assayed in quadruplicate with an 11-point three-fold serial dilution per radioisotope. A pre-warmed 96-well V-bottom plate (Corning 3894; Corning, Corning, Mass.) containing 25 μL of 4× final concentration of test compound was inoculated with 65 μL of mid-log phase bacteria (OD600 of 0.420). Both positive and negative control wells received 25 μL untreated DM and 65 μL of inoculum at the same time. After one minute, 10 μL of radiolabeled precursor (10× final concentration in DM) was added to samples and positive control wells. Final isotope concentrations for assay of [3H]-lysine (protein), [3H]-thymidine (DNA), and [3H]-uridine (RNA) were 10 μCi/mL, 2 μCi/mL, and 2 μCi/mL respectively. […] After termination, 10 μL of 10× radiolabeled precursor was added to negative control wells. The negative control consisted of adding radiolabeled precursors after termination of the bacterial incubation in order to represent background measurement of the isotope. Plates were sealed with plate tape (Thermo Fischer Scientific, Waltham, Mass.) and shaken at 250 rpm for one hour at room temperature. Aliquots of 125 μL were transferred from the 96-well V-bottom plates to 96-well filter plates (Merck Millipore, Billerica, Mass.). To bind macromolecules, the samples were passed through the filter membrane (0.45 μM hydrophilic Durapore PVDF membrane) with a vacuum manifold, then the filter was washed with 4×200 μL 10% TCA and 1×150 μL of 95% ethanol, and dried overnight in vacuum at room temperature. 25 μL Ultima Gold scintillation fluid (Perkin Elmer, Waltham, Mass.) was added to each well and DPM was quantified using a MicroBeta^2-2450 (Perkin Elmer, Waltham, Mass.) scintillation counter. The percent incorporation was determined by subtracting each well by the average negative background and dividing by the average positive incorporation×100. Error bars represent SEM between replicates. The assay was run twice with similar results.

A further data set has as its target T1, MetRS (T. brucei) (Trypanosoma brucei brucei, UniProt Q38C91).
T1 sequence (Q38C91 1-773): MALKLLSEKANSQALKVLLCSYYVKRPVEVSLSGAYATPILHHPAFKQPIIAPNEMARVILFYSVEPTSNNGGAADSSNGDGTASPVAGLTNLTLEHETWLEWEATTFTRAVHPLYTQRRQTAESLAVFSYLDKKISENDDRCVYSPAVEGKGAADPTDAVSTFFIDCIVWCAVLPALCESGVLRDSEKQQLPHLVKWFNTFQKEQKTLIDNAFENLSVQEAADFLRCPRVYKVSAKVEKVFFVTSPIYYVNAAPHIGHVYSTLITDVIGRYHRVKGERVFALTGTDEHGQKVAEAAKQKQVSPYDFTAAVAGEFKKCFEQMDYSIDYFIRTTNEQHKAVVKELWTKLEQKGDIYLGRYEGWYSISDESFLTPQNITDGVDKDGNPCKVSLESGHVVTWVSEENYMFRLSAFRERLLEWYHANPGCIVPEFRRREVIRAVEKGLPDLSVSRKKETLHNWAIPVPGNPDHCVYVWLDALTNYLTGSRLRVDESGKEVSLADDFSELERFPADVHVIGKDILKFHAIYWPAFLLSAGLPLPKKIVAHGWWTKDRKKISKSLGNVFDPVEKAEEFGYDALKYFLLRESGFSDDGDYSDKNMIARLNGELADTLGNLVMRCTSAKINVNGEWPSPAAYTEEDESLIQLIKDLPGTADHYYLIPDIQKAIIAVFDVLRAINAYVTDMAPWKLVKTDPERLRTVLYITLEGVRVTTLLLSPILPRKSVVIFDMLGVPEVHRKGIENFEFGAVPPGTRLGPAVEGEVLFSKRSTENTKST
Nature of the data set: MetRS (T. brucei) enzyme inhibition. The class given is biochemical.

For another data set, the system named is T. brucei. Nature of the data set: T. brucei growth inhibition. It counts as cell-based, Trypanosoma brucei. Conditions: read-out: (D) T. brucei EC50.

Molecules are shown by their SMILES. Like-named read-outs stand apart in the source and are kept apart here. Bounds are passed on as bounds.

Consider `Fc1ccc2nc(NCCCNCc3cc(Cl)cc(Cl)c3)[nH]c2n1` [Compound 1614, [(3,5-dichlorophenyl)methyl][3-({5-fluoro-3H-imidazo[4,5-b]pyridin-2-yl}amino)propyl]amine], for which the minimum inhibitory concentration (MIC) (against E. coli (ATCC 25922); in data set [1]) was above 10 µg/mL in each case. The “effects on weight, grooming, or body condition” value in data set [2] is reported as “no deleterious effects on weight, grooming, or body condition”.

In the case of `Fc1ccc2nc(NCCCN[C@@H]3CCNc4c(Cl)cc(Cl)cc43)[nH]c2n1` [Compound 1717, (4R)-6,8-dichloro—N-[3-({5-fluoro-3H-imidazo[4,5-b]pyridin-2-yl}amino)propyl]-1,2,3,4-tetrahydroquinolin-4-amine, reference compound], the MIC (against E. coli (ATCC 25922); in data set [1]) was above 10 µg/mL throughout. Besides, the “Incorporation of 3H-Lysine (protein synthesis)” value (“Incorporation of 3H-Lysine” below) in the data set on S. aureus (ATCC 29213) is on record as “profoundly inhibited”. For the same molecule, the “effects on weight, grooming, or body condition” value in data set [2] is recorded as “no deleterious effects on weight, grooming, or body condition”.

With `CCn1c(Cc2ccc(Cl)cc2Cl)cn(Cc2nc3nc(F)ccc3[nH]2)c1=O` [Compound 2062, 4-[(2,4-dichlorophenyl)methyl]-3-ethyl-1-({5-fluoro-1H-imidazo[4,5-b]pyridin-2-yl}methyl)-2,3-dihydro-1H-imidazol-2-one], the half-inhibitory concentration (IC50) at MetRS (T. brucei) is below 0.04 µM. The EC50 in the data set with T. brucei was found to be 0.00348 µM.

With `CCn1c(Cc2ccc(OC)cc2Cl)cn(Cc2nc3nc(Cl)ccc3[nH]2)c1=O` [Compound 2093, 1-({5-chloro-1H-imidazo[4,5-b]pyridin-2-yl}methyl)-4-[(2-chloro-4-methoxyphenyl)methyl]-3-ethyl-2,3-dihydro-1H-imidazol-2-one], in the data set with S. aureus (ATCC 29213), the “Incorporation of 3H-Lysine” value was “profoundly inhibited”. On MetRS (T. brucei), this molecule had an IC50 below 0.04 µM.

Regarding `CCn1c(Cc2ccc(OC)cc2Cl)cn(Cc2nc3nc(F)ccc3[nH]2)c1=O` [Compound 2114, 4-[(2-chloro-4-methoxyphenyl)methyl]-3-ethyl-1-({5-fluoro-1H-imidazo[4,5-b]pyridin-2-yl}methyl)-2,3-dihydro-1H-imidazol-2-one], at MetRS (T. brucei), the 50% inhibitory concentration (IC50) was below 0.04 µM. The EC50 in the data set with T. brucei (Trypanosoma brucei) was determined as 0.0014 µM.

For `COc1cc(Cl)c(-c2cccc3nc(Cc4nc5nc(Cl)ccc5[nH]4)cn23)cc1OC` [Compound 2144, 2-({5-chloro-1H-imidazo[4,5-b]pyridin-2-yl}methyl)-5-(2-chloro-4,5-dimethoxyphenyl)imidazo[1,2-a]pyridine], in the data set with S. aureus (ATCC 29213), the “Incorporation of 3H-Lysine” value is “profoundly inhibited”. Besides, at MetRS (T. brucei), the IC50 was below 0.04 µM.

The values above are taken from patent US11584744B2 (UNIVERSITY OF WASHINGTON, priority 2017, dated 2023).
